“Also recorded” adds a separate entry of the source.
What was measured:
HDMX = biological target: T1, HDMX (Homo sapiens, UniProt O15151); assay: binding experiments with HDMX
T1 sequence (O15151 1-490): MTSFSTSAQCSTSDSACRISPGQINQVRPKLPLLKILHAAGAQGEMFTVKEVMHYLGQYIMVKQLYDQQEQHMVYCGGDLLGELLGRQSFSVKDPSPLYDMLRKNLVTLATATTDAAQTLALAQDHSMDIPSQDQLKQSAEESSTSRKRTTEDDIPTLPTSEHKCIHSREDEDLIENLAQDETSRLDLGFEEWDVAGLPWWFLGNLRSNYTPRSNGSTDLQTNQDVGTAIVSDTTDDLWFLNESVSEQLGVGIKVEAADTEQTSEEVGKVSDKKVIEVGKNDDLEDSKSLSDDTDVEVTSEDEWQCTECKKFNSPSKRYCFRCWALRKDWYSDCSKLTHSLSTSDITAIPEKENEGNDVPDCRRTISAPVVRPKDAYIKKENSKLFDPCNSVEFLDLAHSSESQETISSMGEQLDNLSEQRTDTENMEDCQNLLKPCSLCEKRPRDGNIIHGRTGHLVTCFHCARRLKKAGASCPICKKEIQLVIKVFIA

[1] = tested on: HDM2, p53Y220C and p21 in Huh7 cells; assay: Western blot analysis of HDM2, p53 and p21; format: cell-based, human
Method: Huh7 cells were incubated with spiroligomer 1 and Nutlin-3 in media at 2, 5, 10 and 20 µM for 17 hours at 37°C. […] Huh7 cells were then incubated with 1 at 15 µM and cells were harvested at 2, 4, 6, 8, 12 and 24 hours. […]
Cell Culture and Treatment. HepG2 (expressing wild-type p53) and Huh7 (expressing mutant p53) cell lines were purchased from the American Type Culture Collection (ATCC) and cultured as monolayers in Dulbecco’s modified Eagle’s medium (DMEM) (Invitrogen) supplemented with 100 mM nonessential amino acid solution, 100 mM sodium pyruvate, 100 U/mL penicillin, 100 μg/mL streptomycin, and 10% heat inactivated fetal bovine serum (FBS) (all from Hyclone).
Cells were maintained at 37° C and 5% CO2 and were treated with media that contained 0.5%
FBS. Nutlin-3 (Sigma) was dissolved in 0.01% DMSO (Sigma).
Both nutlin-3 and spiroligomers were added into the medium for final concentrations of 2 µM, 5 µM, 10 µM and 20 µM for 24 hours. For the western blot experiments detailed below, the time length for incubation with bis-peptide was 17 hours. […]
Western Blotting. For protein extraction, cells were lysed in cell lysis buffer (Cell Signaling) with a protease inhibitor cocktail for 20 minutes on ice. Protein extracts (50 μg) were separated by SDS-PAGE electrophoresis, transferred to nitrocellulose membranes (Schleicher & Schuell), and incubated overnight with primary antibodies to p53, HDM2, p21, and β-actin (all from Santa Cruz Biotechnology). The blots were developed using ECL plus detection system (Amersham Biosciences) and exposed to Kodak imaging films (Kodak BioMax). Images were quantified using ImageJ software (NIH).
Figure S.5. Detection of bis-peptide 1 and Nutlin-3 in HepG2 (left) and Huh7 (right) cells. The concentration of each compound is given in μM and the three proteins (HDM2, p53 and p21) bands are […]

[2] = tested on: mRNA for HDM2 in Huh7 cells; assay: quantitative real-time PCR and end-point PCR of HDM2; format: cell-based, human; conditions: β-actin as loading control
Method: Huh7 cells were incubated with spiroligomer 1 and Nutlin-3 in media at 2, 5, 10 and 20 µM for 17 hours at 37°C. […] Huh7 cells were then incubated with 1 at 15 µM and cells were harvested at 2, 4, 6, 8, 12 and 24 hours. […] Our hypothesis is that compound 1 stabilizes HDM2 to proteolysis. Studies are underway to determine the mechanism of HDM2 stabilization by compound 1.
RNA Extraction, Reverse Transcription and PCR Analysis. Total RNA was extracted using High Pure RNA Isolation Kit (Roche Applied Science) according to enclosed instructions. cDNA was prepared using RETROscript Reverse Transcription Kit (Ambion). HDM2 primers (Ensembl […]
(forward) and 5'-[…]-3' (reverse). These primers recognize cDNAs of all HDM2 isoforms with p53 binding sequence7 and generate 102 bp amplicon. β-actin primers for 243 bp PCR transcript (Ensemble gene: Actb, ENSRNOG00000034254) were 5’- […]
[…]-3’ (forward) and 5’-[…]-3’ (reverse).
Primers were designed using Primer3Plus Web Interface. cDNA was amplified using FastStart SYBR Green Master Kit (Roche Applied Science). Real-time quantitative PCR was performed using Stratagene Mx 3005P QPCR system. PCR samples were amplified in 40 cycles; each cycle consisted of 60 sec of denaturation at 95 °C, 60 sec of annealing at 60 °C, and 60 sec of elongation at 72 °C. […]
Figure S.7. Real-time quantitative PCR (A.) and end-point PCR (B.) analysis of HDM2 in Huh7 cells […]

[3] = Huh7, 2, 5, 10 and 20 µM, 17 hours, 37°C

CC(C)CN1C(=O)[C@@H]2C[C@@]3(CN2C(=O)[C@@]12C[C@H]1C(=O)N(Cc4ccc(Cl)c(Cl)c4)[C@]4(C[C@@H]5C(=O)N[C@@H](CCc6ccccc6)C(=O)N5C4)C(=O)N1C2)NC(=O)[C@@H](CCCCNC(=S)Nc1ccc2c(c1)C(=O)OC21c2ccc(O)cc2Oc2cc(O)ccc21)NC3=O [Compound 1]
selectivity HDM2 versus HDMX (HDMX; Kd HDM2 0.4 µM versus Kd HDMX 19 µM): selective for HDM2
Kd (HDMX; data not shown): 19 µM
p53Y220C levels with time ([1]; Huh7, 15 µM, harvested at 2, 4, 6, 8, 12 and 24 hours): no change in p53Y220C levels with time; also recorded: no effect on p53Y220C levels
p21 levels [1, 3]: did not change
p53Y220C levels [1, 3]: did not change
HDM2 levels relative to control cells ([1]; Huh7, 2, 5, 10 and 20 µM, 17 hours, 37°C, dose-dependent): more than 30 fold
level of mRNA for HDM2 [2]: no effect; also recorded: no difference in HDM2 expression levels

Reference: article PMC3475717, “A Spiroligomer α-Helix Mimic That Binds HDM2, Penetrates Human Cells and Stabilizes HDM2 in Cell Culture” (PLoS ONE, 2012)
